Experimental findings from US20240398899A1 (priority 2021, published 2024) are described below.

Assay [1] has as its system SH-SY5Y neuronal cells. Nature of the assay: Cytoprotective effect against MPP+ iodide induced damage, MTT assay. As to conditions: MPP+ iodide 1 mM. The protocol:
The Human Neuronal SH-SY5Y Cells were counted using hemocytometer and plated in 96 well plate at a density of 25,000 cells/well and incubated at 37° C. for 24 h. After incubation, cells were treated with recombinant lectin protein having the sequence of SEQ ID NO: 1 at concentrations ranging from 0.001 μg/ml 50 μg/ml for 24 h. After 24 h of treatment, cells were exposed to neurotoxin (MPP+ iodide, 1 mM) for 24 h. Cells treated with MPP+ iodide alone were included as negative control. Untreated cells were included as control. […] After treatment, the cytoprotective effect of SEQ ID NO: 1 on cell viability was assessed by 3-(4,5-dimethythiazol-2-yl)-2,5-diphenyl tetrazolium bromide (MTT) assay: The plate was taken out and 20 μl of 5 mg/ml of MTT 3-(4,5-dimethythiazol-2-yl)-2,5-diphenyl tetrazolium bromide solution was added to all the wells. The SH-SY5Y cells were incubated for 3 h at 37° C. The supernatant was aspirated and 150 μl of DMSO was added to each well to dissolve formazan crystals. The absorbance of each well was read at 540 nm using Synergy HT micro plate reader. The protective effect of the SEQ ID NO: 1 on survival of SH-SY5Y cells against MPP+ iodide induced damage was determined as: The viability of cells was determined as:
Where, the percentage cytotoxicity corresponding to each treatment was calculated as follows:
[formula] • X=Absorbance of cells treated with MPP+ iodide/recombinant lectin having SEQ ID NO: 1+MPP+Iodide • R=Absorbance of Control cells (Untreated) • Percentage protection was calculated as:
[(Absorbance of SEQ ID NO:1+MPP+Iodide)−(Absorbance of MPP+Iodide)/(Absorbance of Untreated)−(Absorbance of MPP+Iodide alone)]*100

The test system of assay [2] is SH-SY5Y neuronal cells. The assay can be described thus: Mitochondrial membrane potential against MPP+ iodide damage, JC-1 assay. The class given is cell-based, human. To be noted: MPP+ iodide 1 mM; for Mitochondrial membrane potential: red/green fluorescence ratio. The method, then:
The plated cells were incubated overnight in 5% CO2 incubator at 37° C. After 24 h, cells were treated with concentrations of recombinant lectin protein having SEQ ID NO: 1 ranging from 1 μg/ml-50 μg/ml for 24 h. After 24 h of treatment, cells were exposed to damage (MPP+ iodide 1 mM) for 24 h. […] Untreated cells were included as control. Cells treated with Deprenyl served as positive control. After MPP+ iodide exposure, the protective effect of recombinant lectin protein having SEQ ID NO: 1 on mitochondrial membrane potential was assessed by JC-1 assay as follows; after incubation, the supernatants were discarded and 100 μl of JC1-dye solution (prepared by diluting 1 mM DMSO stock in to 10 μM in 1×PBS) was added to each well. The cells were then incubated with the dye in CO2 incubator at 37° C. for 15 min. After 15 min of incubation, the supernatant was removed, and the cells were washed twice with 1×PBS (phosphate buffer saline). 100 μl of 1×PBS was finally added to each well. Red fluorescence (excitation 550 nm, emission 600 nm) and green fluorescence (excitation 485 nm, emission 535 nm) were measured using Biotek Synergy HT plate reader. The mitochondrial membrane potential (Δψm) was calculated as the ratio of intensity of red fluorescence to intensity of green fluorescence described as follows: • Δψm=Intensity of red fluorescence/Intensity of green fluorescence • The percentage increase/restoration in Mitochondrial Membrane Potential against MPP+ iodide damage was calculated as:
[formula] • Where X=Δψm corresponding to SEQ ID NO: 1+ MPP+ iodide treated cells • R=Δψm corresponding to control cells (MPP+ iodide damage alone)

Assay [3] deals with SH-SY5Y neuronal cells. Nature of the assay: Annexin-V staining of apoptotic cells against MPP+ iodide damage. The format is cell-based, human. As to conditions: MPP+ iodide 1 mM; for % Decrease in Apoptotic cells (wrt MPP + iodide): Annexin. The protocol: After 24 h of treatment, cells were exposed to damage (MPP+ iodide 1 mM) for 24 h. […] Untreated cells were included as control. Cells treated with Deprenyl served as positive control. After treatment, cells were harvested by trypsinization and processed for Annexin V assay as follows: Cell were gently harvested into pre-labeled sterile centrifuge tubes and centrifuged at 300×g for 5-7 min. After 24 h of treatment, cells were exposed to damage (MPP+ iodide 1 mM) for 24 h. Cells treated with MPP+ iodide alone were included as Control. Untreated cells were included as negative control. Cells treated with Deprenyl served as positive control. After treatment, cells were harvested by trypsinization and processed for Annexin V assay as follows: Cell were gently harvested into pre-labelled sterile centrifuge tubes and centrifuged at 300×g for 5-7 min. Supernatant were discarded and the pellet was resuspended in 200 μl of fresh culture medium. 100 μl of cell suspension was transferred into pre-labeled sterile centrifuge tubes. 100 μl of Annexin-V reagent was added to each tube and incubated for 30 min at RT in dark. Cells stained for Annexin-V were then transferred into 96-well plates and acquired on flow cytometer (Guava technologies). Percentage of Annexin-V positive cells was determined.
Percent inhibition in apoptotic cells=[(% Annexin positive cells in MPP+iodide alone)−(% Annexin positive cells in Recombinant Lectin having SEQ ID NO:1+MPP+iodide)/% Annexin positive cells in MPP+iodide alone]*100

As for `C#CCN(C)[C@H](C)Cc1ccccc1` [Deprenyl, reference compound], the “Percentage Protection” value is 41.5% in the assay on SH-SY5Y neuronal cells [1] (1 μM); 49% in the assay with SH-SY5Y neuronal cells [1] (10 μM); 75.6% with SH-SY5Y neuronal cells [1] (25 μM); 74.7% with SH-SY5Y neuronal cells [1] (50 μM); 67.5% with SH-SY5Y neuronal cells [1] (100 μM). For the same molecule, the “% Increase in Mitochondrial potential (w.r.t. control)” value came to 58.2% with SH-SY5Y neuronal cells [2] (1 μM); 67.9% with SH-SY5Y neuronal cells [2] (10 μM); 95.3% in the assay with SH-SY5Y neuronal cells [2] (25 μM); 79.6% in the assay with SH-SY5Y neuronal cells [2] (50 μM); 39.9% with SH-SY5Y neuronal cells [2] (100 μM). Moreover, the Mitochondrial membrane potential with SH-SY5Y neuronal cells [2] (1 μM) is on record as 2.9; in the assay on SH-SY5Y neuronal cells [2] (10 μM), 3.1; with SH-SY5Y neuronal cells [2] (25 μM), 3.6; in the assay on SH-SY5Y neuronal cells [2] (50 μM), 3.3; in the assay on SH-SY5Y neuronal cells [2] (100 μM) it was 2.6. The “% Apoptotic cells (Anenxin + ve)” value in the assay with SH-SY5Y neuronal cells [3] (10 μM) is given as 3%; in the assay on SH-SY5Y neuronal cells [3] (25 μM) it was 2.5%; in the assay on SH-SY5Y neuronal cells [3] (100 μM), 2.9%. For the same molecule, the entries for the “% Decrease in Apoptotic cells (wrt MPP + iodide)” value in the assay with SH-SY5Y neuronal cells [3] (10 μM), with SH-SY5Y neuronal cells [3] (25 μM) and in the assay on SH-SY5Y neuronal cells [3] (100 μM) were 27.2%, 38.3% and 28.4%, respectively.
